Common to all, as to assay type: cell-based
Test [1] relates to Nrf2 transcription factor. As to the kind of experiment: AREc32 luciferase reporter assay. Conditions: Homo sapiens; AREc32 cells, 19 hours; concentration required to increase GST ARE luciferase reporter activity by 2-fold; read-out: NRF2 ARE 2-Fold (EC2×). The text has this: A. AREc32 Luciferase Reporter Assay
The AREc32 luciferase reporter assay allows for quantitative assessment of the endogenous activity of the Nrt2 transcription factor in cultured mammalian cells. AREc32 cells are derived from MCF-7 human breast carcinoma cells that were stably transfected with a reporter construct that contains the firefly luciferase gene located downstream of eight copies of the rat GSTA2 antioxidant response element (ARE) sequence (Wang et al., 2006; Concept Life Sciences Integrated Discovery and Development Services Ltd (CLSIDDS)). Active Nrf2 binds to the ARE sequences and increases expression of the firefly luciferase gene. To assess the Nrf2-activating potential of the test compounds, AREc32 cells were plated in black […] plates at a density of 20,000 cells per well in triplicate in DMEM+10% FBS+0.8 mg/mL Geneticin and incubated at 37° C. with 5% CO2 in a humidified atmosphere. The next day, cells were treated with DMSO (vehicle) or test compound (concentration ranges of 0.4-200 nM or 3.9-2000 nM) for 19 hours. Luciferase activity was determined using the ONE-Glo Luciferase assay (Promega). The luminescence signal was measured on a BMG Pherastar microplate reader. The mean luminescence value from test compound-treated wells was normalized to that from DMSO-treated wells and was represented as fold-induction. Data were analyzed using GraphPad Prism version 6.00 for Windows, GraphPad Software, La Jolla Calif. USA. A non-linear regression curve with log (agonist) vs. response using a variable slope was used to fit the data. Where applicable, a maximum threshold value of 50-fold over DMSO was set. EC2× values were interpolated from the curve. EC2× corresponds to the concentration of test compound required to increase GST ARE Luciferase reporter activity by 2-fold.
For orientation: Reporter assays use an easily measured gene product as a stand-in for the process of interest.

The target of test [2] is T1, Human RAR-related Orphan Receptor Gamma (RORγ) (Homo sapiens, UniProt P51449).
T1 sequence (P51449 269-508 limits assumed): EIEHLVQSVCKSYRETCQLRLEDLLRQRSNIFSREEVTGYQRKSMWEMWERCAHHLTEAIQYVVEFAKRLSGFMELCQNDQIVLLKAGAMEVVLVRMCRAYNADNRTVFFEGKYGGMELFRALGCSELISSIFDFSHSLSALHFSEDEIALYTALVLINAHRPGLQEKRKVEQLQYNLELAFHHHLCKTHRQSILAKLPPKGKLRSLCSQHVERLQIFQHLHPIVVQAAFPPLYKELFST
As to the kind of experiment: RORγ assay (GAL4-RORγ hybrid luciferase reporter, Indigo Biosciences). The note with it: inverse-agonist activity, GAL4-RORγ reporter cells, 23 hours. The text has this:
B. RORγ Assay and Cell Viability
The RORγ assay system was purchased from Indigo Biosciences. This nuclear receptor assay utilizes a human cell line that has been engineered to express a hybrid form of the Human RAR-related Orphan Receptor Gamma (RORγ) at high levels. The N-terminal DNA binding domain (DBD) of the native RORγ receptor was substituted with the yeast GAL4-DBD to generate the GAL4-RORγ hybrid nuclear receptor. The reporter cell line is transfected with a plasmid that encodes the beetle luciferase gene under the control of the GAL4 upstream activating sequence (UAS). GAL4 binds to the UAS and increases transcription of downstream target genes. The GAL4-RORγ hybrid is constitutively active; therefore, the principle application of this reporter assay system is to screen test compounds to quantify inverse-agonist activities against human RORγ. Because the ligand binding domain (LBD) of RORγ is identical to the LBD of RORγt, this assay is an accurate surrogate for evaluating activity of experimental ligands against RORγt. To assess the RORγ inverse-agonist activity of the test compounds, reporter cells were plated in white 96-well plates in triplicate and were treated with DMSO (vehicle) or test compound (concentration ranges of 7.8-2000 nM) at 37° C. with 5% CO2 in a humidified atmosphere for 23 hours. After this incubation, luciferin was added to the wells and luciferase activity was determined by measuring the luminescence signal using a BMG Pherastar microplate reader. Viability was determined using the Live Cell Multiplex Assay (Indigo Biosciences). Values from test compound samples were normalized to those from DMSO-treated samples. Data were analyzed using GraphPad Prism version 6.00 for Windows (GraphPad Software, La Jolla Calif. USA). A non-linear regression analysis with log (inhibitor) vs. normalized response using a variable slope was applied to fit the data and determine the IC50 values for inhibition of RORγ and cell viability. Inhibition that is closely correlated with reduced viability is considered to be non-specific.

The test system of another test is IL-17A. As to the kind of experiment: IL-17 release from differentiated primary human T-cells (IL-17A HTRF assay). The note with it: primary human CD4+ T cells differentiated into Th17 cells, 45-hour incubation, IL-17A in supernatant; read-out: hIL17 IC50. Here is the method: C. IL-17 Release from Differentiated Primary Human T-Cells and Cell Viability
Primary human cryopreserved CD4+ T Cells (Lonza) were thawed according to the manufacturer's recommendations and plated either in Lymphocyte Growth Medium-3 (LGM-3) or X-VIVO 20 media (Lonza) in 96-well tissue culture plates at a density of ˜2×10^5 cells per well, and allowed to recover for approximately 4 hours at 37° C. with 5% CO2 in a humidified atmosphere. After the recovery step, DMSO (vehicle) or test compound at doses ranging from 2 to 500 nM or 4 to 1000 nM in a three-fold dilution series was added to the cells. Three replicate wells were tested for each treatment condition. Final DMSO concentration in each well was 0.1%. Immediately after treatment, CD4+ T cells were activated by adding Dynabeads Human T-Activator CD3/CD28 (Life Technologies; bead-to-cell ratio of 1:2.5) and differentiated into Th17 cells by adding a mixture of the following cytokines: transforming growth factor-β (TGF-β, 5 ng/mL), IL-6 (20 ng/mL), IL-23 (20 ng/mL), and IL-1β (10 ng/mL). Undifferentiated control cells received only cytokine IL-2 (50 ng/mL). All human recombinant cytokines were purchased from R&D Systems. Following a 45-hour incubation at 37° C. with 5% CO2 in a humidified atmosphere, the plates were centrifuged for 3 minutes at 250×g, and half of the supernatant was transferred to anew plate to be used in the IL-17A assay (see below). Cell viability was assessed in the original plate using the CyQuant Direct Assay (Life Technologies). CyQuant reagent (an amount equal to 10% of remaining media volume) was added to the wells, and the plates were then incubated at 37° C. for 75 min. Fluorescence was read on a SpectraMax M2e spectrophotometer at 480 nm (excitation) and 535 nm (emission) wavelengths. CyQuant values from test compound samples were normalized to those from DMSO-treated samples. The concentration of IL-17A in the supernatant was measured using the Homogeneous Time-Resolved Fluorescence (HTRF) assay (Cisbio Bioassays) according to the manufacturer's protocol. The assay was performed at room temperature in low volume, solid white 384-well plates (Greiner Bio-One). Samples and standards (serially-diluted human recombinant IL-17A (0 to 5,000 pg/mL concentration range; Cisbio Bioassays) were incubated with the anti-human IL-17A antibody conjugates (the HTRF donor and acceptor pair) for 16 hours and fluorescence was measured using a Pherastar FS microplate reader (BMG Labtech) in the HTRF mode (excitation at 337 nm and emission at 665 nm and 620 nm). IL-17A levels were assessed in duplicate aliquots of supernatant from each well resulting in a total of six readings per test condition. The 665 nm/620 nm signal ratio was calculated and the concentration of IL-17A in each sample was determined by interpolation from the standard curve. The amount of IL-17A from test compound treated samples were normalized to that of the vehicle-treated samples, set to 100%. Data were analyzed using GraphPad Prism (GraphPad Software, La Jolla California USA). Concentrations of test compound were transformed by taking the logarithm of each concentration used. The IC50 values for compound-mediated reduction in IL-17A levels and cell viability were determined by non-linear regression analysis using the log(inhibitor) vs. normalized response with variable slope equation. Inhibition that is closely correlated with reduced viability is considered to be non-specific.
For orientation: Time-resolved FRET reads energy transfer from a long-lived donor to a nearby acceptor.

By IC50 is commonly meant the midpoint of a concentration-inhibition curve.

With `C[C@H]1C(=O)C(C#N)=C[C@@]2(C)c3nn(-c4ccc(-c5ccccc5)cc4)c(-c4ccncc4)c3CC[C@H]12` [T124], the EC (2-fold) in test [1] came out at 0.651 µM. Further, the IC50 was 0.123 µM in test [2] and 0.077 µM with IL-17A.
The like results for `Cc1noc(C)c1-c1ccc(-n2nc(-c3ccccc3)c3c2[C@]2(C)C=C(C#N)C(=O)[C@H](C)[C@H]2CC3)cc1` [T38] were, in that order, 0.215 µM, 0.046 µM and 0.037 µM.
In the case of `C[C@H]1C(=O)C(C#N)=C[C@@]2(C)c3c(c(-c4ccc(CO)cc4)nn3-c3ccc(-c4ccccc4)cc3)CC[C@H]12` [T73], in test [1], the EC (2-fold) turned out to be 0.159 µM. In addition, the figures for the IC50 (in test [2]; with IL-17A) were 0.04 µM and 0.03 µM, respectively.
As for `CC(C)c1ccc(-n2nc3c(c2-c2ccccc2)CC[C@@H]2[C@@H](C)C(=O)C(C#N)=C[C@@]32C)cc1` [T26], in test [1], the EC (2-fold) came out at 0.944 µM. Also, the IC50 in test [2] was 0.104 µM; in the test with IL-17A it was 0.061 µM.
On to `C[C@H]1C(=O)C(C#N)=C[C@@]2(C)c3c(c(-c4ccncc4)nn3-c3ccc(-c4ccccc4)cc3)CC[C@H]12` [T67], for which, in test [1], the EC (2-fold) stood at 0.269 µM. The IC50 was 0.049 µM in test [2] and 0.026 µM in the test with IL-17A.
The like results for `C[C@H]1C(=O)C(C#N)=C[C@@]2(C)c3c(c(-c4ccccc4)nn3-c3ccc(-c4ccccc4)cc3)CC[C@H]12` [T21] were, in that order, 0.161 µM, 0.08 µM and 0.019 µM.
For the molecule `C[C@H]1C(=O)C(C#N)=C[C@@]2(C)c3c(c(-c4ccncn4)nn3-c3ccc(-c4cccc(CO)c4)cn3)CC[C@H]12` [T60], in test [1], the EC (2-fold) is 0.44 µM. For the same molecule, the values for the IC50 (in test [2]; in the test on IL-17A) were 0.101 µM and 0.141 µM, respectively.
For `C[C@H]1C(=O)C(C#N)=C[C@@]2(C)c3c(c(-c4ccccc4)nn3-c3ccc(OC(F)(F)F)cc3)CC[C@H]12` [T19], the EC (2-fold) in test [1] was 0.247 µM. Also, the values for the IC50 (in test [2]; in the test with IL-17A) were 0.085 µM and 0.032 µM, respectively.
The like results for `C[C@H]1C(=O)C(C#N)=C[C@@]2(C)c3c(c(-c4ccc(F)cc4)nn3-c3ccc(-c4cccnn4)cc3)CC[C@H]12` [T178] were, in that order, 0.342 µM, 0.064 µM and 0.031 µM.
The like results for `C[C@H]1C(=O)C(C#N)=C[C@@]2(C)c3c(c(-c4ccccc4F)nn3-c3nnc(-c4ccccc4)n3C)CC[C@H]12` [T86] were, in that order, 1.48 µM, 0.351 µM and 0.088 µM.
The like results for `C[C@H]1C(=O)C(C#N)=C[C@@]2(C)c3c(c(-c4ccncn4)nn3-c3ccc(-c4ccc(F)cc4)cn3)CC[C@H]12` [T56] were, in that order, 0.433 µM, 0.099 µM and 0.055 µM.
For `C[C@H]1C(=O)C(C#N)=C[C@@]2(C)c3c(c(-c4ccc(CF)cc4)nn3-c3ccc(-c4ccccc4)cc3)CC[C@H]12` [T74], the EC (2-fold) in test [1] is 0.182 µM. Further, the IC50 in test [2] came out at 0.111 µM; in the test with IL-17A, 0.016 µM.
The like results for `C[C@H]1C(=O)C(C#N)=C[C@@]2(C)c3c(c(-c4cccnc4)nn3-c3nc4ccccc4s3)CC[C@H]12` [T99] were, in that order, 0.329 µM, 0.449 µM and 0.087 µM.
Consider `C[C@H]1C(=O)C(C#N)=C[C@@]2(C)c3c(c(-c4ccccc4)nn3-c3ccnc4ccccc34)CC[C@H]12` [T8], for which, in test [1], the EC (2-fold) worked out at 0.426 µM. Also, the IC50 came out at 0.081 µM in test [2] and 0.073 µM in the test with IL-17A.
On to `C[C@H]1C(=O)C(C#N)=C[C@@]2(C)c3nn(-c4ccc(Cl)c(Cl)c4)c(-c4ccccc4)c3CC[C@H]12` [T117], for which the EC (2-fold) in test [1] turned out to be 0.834 µM. Further, the figures for the IC50 (in test [2]; in the test on IL-17A) were 0.114 µM and 0.107 µM, respectively.
The like results for `C[C@H]1C(=O)C(C#N)=C[C@@]2(C)c3nc(-c4ccccc4)n(-c4cccc(F)c4)c3CC[C@H]12` [T134] were, in that order, 0.832 µM, 0.143 µM and 0.183 µM.
The like results for `Cc1ccccc1-n1nc(-c2ccccc2)c2c1[C@]1(C)C=C(C#N)C(=O)[C@H](C)[C@H]1CC2` [T17] were, in that order, 0.105 µM, 0.077 µM and 0.094 µM.
On to `C[C@H]1C(=O)C(C#N)=C[C@@]2(C)c3nn(-c4ccccc4)c(-c4ccccc4)c3CC[C@H]12` [T115], for which, in test [1], the EC (2-fold) is 0.466 µM. The concentration for half-maximal inhibition (IC50) in test [2] is 0.077 µM; in the test on IL-17A, 0.287 µM.
As for `C[C@H]1C(=O)C(C#N)=C[C@@]2(C)c3nn(-c4cccc(-c5ccccc5)c4)c(-c4cccc(F)c4)c3CC[C@H]12` [T126], the EC (2-fold) in test [1] is 1.12 µM. Further, the IC50 in test [2] is 0.253 µM; with IL-17A, 0.021 µM.
With `CC(C)c1ncc(-c2nc3c(n2-c2cccc(F)c2)CC[C@@H]2[C@@H](C)C(=O)C(C#N)=C[C@@]32C)cn1` [T131], in test [1], the EC (2-fold) was determined as 0.767 µM. The IC50 in test [2] amounted to 0.17 µM; with IL-17A, 0.138 µM.
